# Measurements reported in paper PMC10281575, “PfCRT mutations conferring piperaquine resistance in falciparum malaria shape the kinetics of quinoline drug binding and transport” (PLOS Pathogens, 2023).
# “And” between values parts separate entries of the source, which are not always exact repeats. Identical values can stand only once.
# Molecular target: T1, PfCRT^Dd2_F145I (Plasmodium falciparum, UniProt Q8IBZ9, A220S/F145I/I356T/K76T/M74I/N326S/N75E/Q271E/R371I)
# T1 construct: expressed in transfected cells; host or cells: Xenopus laevis oocytes injected with in vitro transcribed RNA (pSP64T)
# T1 sequence (Q8IBZ9 1-424 M74I/N75E/K76T/F145I/A220S/Q271E/N326S/I356T/R371I): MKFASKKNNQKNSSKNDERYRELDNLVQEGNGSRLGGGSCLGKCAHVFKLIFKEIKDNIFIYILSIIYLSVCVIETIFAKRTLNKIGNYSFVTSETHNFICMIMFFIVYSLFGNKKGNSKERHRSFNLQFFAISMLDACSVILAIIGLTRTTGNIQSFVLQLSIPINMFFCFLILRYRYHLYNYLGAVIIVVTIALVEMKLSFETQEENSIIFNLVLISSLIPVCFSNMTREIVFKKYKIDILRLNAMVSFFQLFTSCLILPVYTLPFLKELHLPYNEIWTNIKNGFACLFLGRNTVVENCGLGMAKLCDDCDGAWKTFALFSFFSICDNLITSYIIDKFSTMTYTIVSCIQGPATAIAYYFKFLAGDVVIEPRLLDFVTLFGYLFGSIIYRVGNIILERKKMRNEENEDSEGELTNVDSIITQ
# Experiment: Radiolabeled drug uptake in X. laevis oocytes expressing PfCRT^Dd2_F145I
# Assay type: cell-based
# Text: The two kinetic parameters were derived by fitting the Michaelis-Menten equation to the kinetic data (Table 1).
# A codon-optimized coding sequence of the Dd2 isoform of PfCRT (PfCRT^Dd2) was subcloned into the pSP64T expression vector [21]. To generate the necessary mutations to introduce the amino acid substitutions H97Y, F145I, M343L or G353V into the pfcrt sequence, the overlap extension method was used. A region from the 5’-untranslated Xenopus β-globin sequence to the respective 3’ region, containing the full length pfcrt coding sequence, was amplified using the following primer pairs: for the H97Y mutation, numbers 1/4 and 2/3; for the F145I mutation, numbers 1/6 and 2/5; for the M343L mutation, numbers 1/8 and 2/7; and for the G353V mutation, numbers 1/10 and 2/9 (for primers, see S2 Table). Both PCR products were used as template for amplification of the final product using primers number 1/2. The resulting fragment was cloned into the pSP64T expression vector, and the presence of the desired mutation was confirmed by sequencing.
# Adult female X. laevis frogs (purchased from NASCO) were anesthetized by submersion in a solution of 0.3% (w/v) 3-amino benzoate methanesulfonate for 15 min. Sections of the ovary were surgically removed and placed in Ca^2+-free ND96 buffer supplemented with 0.1% collagenase D (w/v; Roche), 0.5% BSA (w/v) and 9 mM Na2HPO4 at 18°C for 14–16 h while gently shaking. The oocytes were then washed several times with ND96 buffer (5 mM HEPES, pH 7.5, 96 mM NaCl, 2 mM KCl, 1.8 mM CaCl2, 1 mM MgCl2), supplemented with […] gentamycin. Healthy-looking stage V-VI oocytes were manually selected and randomly grouped for injection. A codon-optimized coding sequence of PfCRT was subcloned into the pSP64T expression vector and subsequently linearized using the restriction endonuclease BamHI or SalI (New England Biolabs GmbH). RNA for injection was transcribed in vitro using the mMESSAGE mMACHINE SP6 Transcription kit (Ambion), diluted with nuclease-free water to a final concentration of 0.6 μg/μL and stored at -80°C. RNA was injected using precision-bore glass capillary tubes (3.5-inch glass capillaries; Drummond Scientific Co.), which were pulled on a vertical puller (P-87 Flaming/Brown micropipette puller, Sutter Instrument Co.) and graduated. The micropipettes were connected to a microinjector (Nanoject II Auto-Nanoliter Injector, Drummond Scientific Co.). Injection was conducted under stereomicroscopic control. 50 nL of nuclease-free water alone (control oocytes) or 50 nL of nuclease-free water containing 30 ng of RNA was injected per oocyte. Injected oocytes were kept for 72 h at 18°C in ND96 buffer with two daily buffer changes before being used for further experiments.
# Drug transport assays were performed as previously described. Briefly, measurements of radiolabeled drug uptake were made over 1 h, unless otherwise specified. […] Where specified, one or more unlabeled drugs were also present at the indicated concentrations. […] The uptake assays were terminated by removing the oocytes from the reaction medium and washing them three times with 2 mL of ice-cold ND96 buffer. Each oocyte was transferred to a separate scintillation vial and lysed by the addition of 200 μL of a 5% SDS solution. The radioactivity in the sample was measured using a liquid scintillation analyser Tri-Carb 4910 TR (PerkinElmer). Water-injected oocytes were analyzed in parallel as a negative control. The buffer from each condition was measured in duplicate in parallel to each experiment to transform counts per minute into pmol of drug. Drug uptake attributable to PfCRT was determined by subtracting the background uptake from water-injected oocytes from that of PfCRT-expressing oocytes.
# [1] = 50 μM CQ, pH 6.0, total uptake, one value per biological replicate
# [2] = 50 μM CQ, pH 6.0, water-injected uptake subtracted, per replicate
# [3] = 60 min, pH 6, per biological replicate
compound,measurement,setting,value
"CCN(CC)CCCC(C)Nc1ccnc2cc(Cl)ccc12 (stereo not shown) [CQ, chloroquine]",PfCRTDd2_F145I-mediated CQ uptake at 10 µM CQ,"10 µM CQ, single replicates",1.05 pmol oocyte-1 h-1 and 0.76 pmol oocyte-1 h-1 and 0.87 pmol oocyte-1 h-1
same,PfCRTDd2_F145I uptake of CQ at 10 min,[1],5.03 pmol oocyte-1 and 4.98 pmol oocyte-1 and 4.51 pmol oocyte-1 and 3.10 pmol oocyte-1 and 1.40 pmol oocyte-1
same,PfCRTDd2_F145I uptake of CQ at 30 min,[1],5.64 pmol oocyte-1 and 11.05 pmol oocyte-1 and 6.90 pmol oocyte-1 and 4.67 pmol oocyte-1 and 6.95 pmol oocyte-1
same,PfCRTDd2_F145I uptake of CQ at 60 min,[1],18.17 pmol oocyte-1 and 7.02 pmol oocyte-1 and 13.61 pmol oocyte-1
same,PfCRTDd2_F145I uptake of CQ at 90 min,[1],12.38 pmol oocyte-1 and 19.74 pmol oocyte-1 and 12.45 pmol oocyte-1 and 15.73 pmol oocyte-1
same,PfCRTDd2_F145I uptake of CQ at 120 min,[1],27.64 pmol oocyte-1 and 15.50 pmol oocyte-1 and 17.12 pmol oocyte-1 and 17.11 pmol oocyte-1
same,PfCRTDd2_F145I uptake of CQ at 180 min,[1],16.65 pmol oocyte-1 and 27.26 pmol oocyte-1 and 23.91 pmol oocyte-1 and 24.65 pmol oocyte-1 and 18.05 pmol oocyte-1
same,PfCRTDd2_F145I-mediated CQ uptake at 10 min,[2],0.94 pmol oocyte-1 and 1.01 pmol oocyte-1 and 0.80 pmol oocyte-1 and 2.16 pmol oocyte-1 and 0.92 pmol oocyte-1
same,PfCRTDd2_F145I-mediated CQ uptake at 30 min,[2],0.42 pmol oocyte-1 and 1.71 pmol oocyte-1 and 1.49 pmol oocyte-1 and 3.31 pmol oocyte-1 and 2.06 pmol oocyte-1
same,PfCRTDd2_F145I-mediated CQ uptake at 60 min,[2],3.80 pmol oocyte-1 and 4.28 pmol oocyte-1 and 2.84 pmol oocyte-1
same,PfCRTDd2_F145I-mediated CQ uptake at 90 min,[2],3.78 pmol oocyte-1 and 4.21 pmol oocyte-1 and 3.32 pmol oocyte-1 and 5.64 pmol oocyte-1
same,PfCRTDd2_F145I-mediated CQ uptake at 120 min,[2],7.06 pmol oocyte-1 and 4.10 pmol oocyte-1 and 3.52 pmol oocyte-1 and 3.59 pmol oocyte-1
same,PfCRTDd2_F145I-mediated CQ uptake at 180 min,[2],3.40 pmol oocyte-1 and 6.55 pmol oocyte-1 and 4.77 pmol oocyte-1 and 7.29 pmol oocyte-1 and 3.73 pmol oocyte-1
same,PfCRTDd2_F145I-mediated CQ uptake at 50 µM CQ,"50 µM CQ, single replicates",3.80 pmol oocyte-1 h-1 and 4.28 pmol oocyte-1 h-1 and 2.84 pmol oocyte-1 h-1
same,PfCRTDd2_F145I-mediated CQ uptake at 100 µM CQ,"100 µM CQ, single replicates",7.23 pmol oocyte-1 h-1 and 7.33 pmol oocyte-1 h-1 and 8.14 pmol oocyte-1 h-1
same,PfCRTDd2_F145I-mediated CQ uptake at 200 µM CQ,"200 µM CQ, single replicates",12.53 pmol oocyte-1 h-1 and 11.12 pmol oocyte-1 h-1 and 14.18 pmol oocyte-1 h-1
same,PfCRTDd2_F145I-mediated CQ uptake at 300 µM CQ,"300 µM CQ, single replicates",13.73 pmol oocyte-1 h-1 and 16.27 pmol oocyte-1 h-1 and 18.53 pmol oocyte-1 h-1
same,PfCRTDd2_F145I-mediated CQ uptake at 400 µM CQ,"400 µM CQ, single replicates",14.23 pmol oocyte-1 h-1 and 18.19 pmol oocyte-1 h-1 and 22.31 pmol oocyte-1 h-1
same,PfCRTDd2_F145I-mediated CQ uptake at 500 µM CQ,"500 µM CQ, single replicates",19.16 pmol oocyte-1 h-1 and 17.39 pmol oocyte-1 h-1 and 23.99 pmol oocyte-1 h-1
same,PfCRTDd2_F145I-mediated CQ uptake at 10 µM CQ,[3],1.05 pmol oocyte-1 h-1 and 0.76 pmol oocyte-1 h-1 and 0.87 pmol oocyte-1 h-1
same,PfCRTDd2_F145I-mediated CQ uptake at 50 µM CQ,[3],2.84 pmol oocyte-1 h-1 and 3.80 pmol oocyte-1 h-1 and 4.28 pmol oocyte-1 h-1
same,PfCRTDd2_F145I-mediated CQ uptake at 100 µM CQ,[3],7.23 pmol oocyte-1 h-1 and 7.33 pmol oocyte-1 h-1 and 8.14 pmol oocyte-1 h-1
same,PfCRTDd2_F145I-mediated CQ uptake at 200 µM CQ,[3],12.53 pmol oocyte-1 h-1 and 11.12 pmol oocyte-1 h-1 and 14.18 pmol oocyte-1 h-1
same,PfCRTDd2_F145I-mediated CQ uptake at 300 µM CQ,[3],13.73 pmol oocyte-1 h-1 and 16.27 pmol oocyte-1 h-1 and 18.53 pmol oocyte-1 h-1
same,PfCRTDd2_F145I-mediated CQ uptake at 400 µM CQ,[3],14.23 pmol oocyte-1 h-1 and 18.19 pmol oocyte-1 h-1 and 22.31 pmol oocyte-1 h-1
same,PfCRTDd2_F145I-mediated CQ uptake at 500 µM CQ,[3],19.16 pmol oocyte-1 h-1 and 17.39 pmol oocyte-1 h-1 and 23.99 pmol oocyte-1 h-1
same,"Vmax, maximal velocity of drug transport","Michaelis-Menten fit, 10-500 μM drug, 60 min, pH 6",35 ± 2 pmol oocyte^-1 h^-1
same,increase of KM by the F145I substitution,versus PfCRT^Dd2,44%
